Assay results from patent publication US20050175545A1, “Formulation for inhalation comprising a glucocorticoid and a beta 2-adrenoreceptor agonist” (priority 2002, published 2005).

Key:
lung eosinophilia = experiment: ovalbumin sensitised Brown Norway rat eosinophilia model; assay type: in vivo; conditions: intra-tracheal suspension in saline 30 min prior to ovalbumin challenge
Method: Pharmacological activity in vivo was assessed in an ovalbumin sensitised Brown Norway rat eosinophilia model. This model is designed to mimic allergen induced lung eosinophilia, a major component of lung inflammation in asthma.

human hepatocytes = experiment: In vitro metabolism in human hepatocytes; assay type: in vitro ADME; conditions: 17-β carboxylic acid (X) only significant metabolite
rat hepatocytes = experiment: In vitro metabolism in rat hepatocytes; assay type: in vitro ADME; conditions: 17-β carboxylic acid (X) only significant metabolite
[1] = Pharmacokinetics after intra-tracheal dry powder dosing in the pig; assay type: in vivo; conditions: intra-tracheal 1 mg; lower limits of quantitation 10 (Example 1) and 20 pg/mL (fluticasone propionate)
Method: Serial blood samples were taken for up to 8h following dosing.

[2] = Pharmacokinetics after intravenous administration in the anaesthetised pig; assay type: in vivo; conditions: for clearance (comparison, in words): intravenous 0.1 mg/kg; for pharmacokinetic parameters (comparison, in words): intravenous mixture of the two compounds at 0.1 mg/kg
Description: The clearance of these two glucocorticoids is similar is this experimental pig model.

[3] = Pharmacokinetics after intravenous and oral dosing in rats; conditions: in vivo data in the rat
NFκB = NFκB firefly luciferase reporter stimulated with TNFα, transrepression; assay type: cell-based; conditions: Homo sapiens, A549, read-out: Transrepression (NFκB) ED50 (nM)
Description: The glucocorticoid receptor (GR) can function in at least two distinct mechanisms, by upregulating gene expression through the direct binding of GR to specific sequences in gene promoters, and by downregulating gene expression that is being driven by other transcription factors (such as NFκB or AP-1) through their direct interaction with GR.
The first cell line contains the firefly luciferase reporter gene under the control of a synthetic promoter that specifically responds to activation of the transcription factor NFκB when stimulated with TNFα. The second cell line contains the renilla luciferase reporter gene under the control of a synthetic promotor that comprises 3 copies of the consensus glucocorticoid response element, and which responds to direct stimulation by glucocorticoids. Simultaneous measurement of transactivation and transrepression was conducted by mixing the two cell lines in a 1:1 ratio in 96 well plate (40,000 cells per well) and growing overnight at 37° C. Test compounds were dissolved in DMSO, and added to the cells at a final DMSO concentration of 0.7%. After incubation for 1 h 0.5 ng/ml TNFα (R&D Systems) was added and after a further 15 hours at 37° C., the levels of firefly and renilla luciferase were measured using the Packard Firelite kit following the manufacturers' directions. Dose response curves were constructed from which EC50 values were determined.

Question: Which “inhibition of lung eosinophilia (dose relation, in words)” value (lung eosinophilia) does the source give for C[C@@H]1CC2C3C[C@H](F)C4=CC(=O)C=C[C@]4(C)[C@@]3(F)[C@@H](O)C[C@]2(C)[C@@]1(OC(=O)c1ccco1)C(=O)SCF (stereo partly drawn) [Example 1, 6α,9α-Difluoro-17α-[(2-furanylcarbonyl)oxy]-11β-hydroxy-16α-methyl-3-oxo-androsta-1,4-diene-17β-carbothioic acid S-fluoromethyl ester] here?
Answer: dose dependant inhibition

Question: What about the manner of metabolism (human hepatocytes) of the same compound?
Answer: metabolised in an identical manner to fluticasone propionate

Question: What about the manner of metabolism (rat hepatocytes) of the same compound?
Answer: metabolised in an identical manner to fluticasone propionate

Question: And the “time after dosing up to which quantifiable in plasma” value [1]?
Answer: up to 2 hours

Question: And the “clearance (comparison, in words)” value [2]?
Answer: similar

Question: And the “pharmacokinetic parameters (comparison, in words)” value [2]?
Answer: the same

Question: And the “plasma clearance (in words)” value [3]?
Answer: approaching hepatic blood flow

Question: For CC1CC2C3CC(F)C4=CC(=O)C=CC4(C)C3(F)C(O)CC2(C)C1(OC(=O)c1ccsc1)C(=O)SCF (stereo not drawn) [Example 4, 6α,9α-Difluoro-11β-hydroxy-16α-methyl-3-oxo-17α-[(3-thienylcarbonyl)oxy]-androsta-1,4-diene-17β-carbothioic acid S-fluoromethyl ester], which “plasma clearance (in words)” value [3] is on record?
Answer: approaching hepatic blood flow

Question: Which “plasma clearance (in words)” value [3] does the source give for Cc1ccoc1C(=O)OC1(C(=O)SCF)C(C)CC2C3CC(F)C4=CC(=O)C=CC4(C)C3(F)C(O)CC21C (stereo not drawn) [Example 19, 6α,9α-Difluoro-11β-hydroxy-16α-methyl-17α-[(3-methylfuran-2-carbonyl)oxy]-3-oxo-androsta-1,4-diene-17β-carbothioic acid S-fluoromethyl ester] here?
Answer: approaching hepatic blood flow

Question: For Cc1cc(C(=O)OC2(C(=O)SCF)C(C)CC3C4CC(F)C5=CC(=O)C=CC5(C)C4(F)C(O)CC32C)no1 (stereo not drawn) [Example 24, 6α,9α-Difluoro-11β-hydroxy-16α-methyl-17α-[(5-methylisoxazole-3-carbonyl)oxy]-3-oxo-androsta-1,4-diene-17β-carbothioic acid S-fluoromethyl ester], which “plasma clearance (in words)” value [3] is on record?
Answer: approaching hepatic blood flow

Question: For Cc1cc(C(=O)OC2(C(=O)SCF)C(C)CC3C4CC(F)C5=CC(=O)C=CC5(C)C4(F)C(O)CC32C)on1 (stereo not drawn) [Example 25, 6α,9α-Difluoro-11β-hydroxy-16α-methyl-17α-[(3-methylisoxazole-5-carbonyl)oxy]-3-oxo-androsta-1,4-diene-17β-carbothioic acid S-fluoromethyl ester], which “plasma clearance (in words)” value [3] is on record?
Answer: approaching hepatic blood flow

Question: With CC1CC2C3CC(F)C4=CC(=O)C=CC4(C)C3(F)C(O)CC2(C)C1(OC(=O)c1ccon1)C(=O)SCF (stereo not drawn) [Example 28, 6α,9α-Difluoro-11β-hydroxy-17α-[(isoxazole-3-carbonyl)oxy]-16α-methyl-3-oxo-androsta-1,4-diene-17β-carbothloic acid S-fluoromethyl ester] as the compound, how does the “plasma clearance (in words)” value [3] read?
Answer: approaching hepatic blood flow

Question: Which “time after dosing up to which quantifiable in plasma” value [1] does the source give for CCC(=O)O[C@]1(C(=O)SCF)[C@H](C)C[C@H]2[C@@H]3C[C@H](F)C4=CC(=O)C=C[C@]4(C)[C@@]3(F)[C@@H](O)C[C@@]21C [Fluticasone propionate, 6α,9α-Difluoro-17α-(1-oxopropoxy)-11β-hydroxy-16α-methyl-3-oxo-androsta-1,4-diene-17β-carbothioic acid S-fluoromethyl ester, reference compound] here?
Answer: up to 8 hours

Question: And the “clearance (comparison, in words)” value [2]?
Answer: similar

Question: What about the “pharmacokinetic parameters (comparison, in words)” value [2] of the same compound?
Answer: the same

Question: Which EC50 (NFκB) does the source give for C[C@@H]1C[C@H]2[C@@H]3C[C@H](F)C4=CC(=O)C=C[C@]4(C)[C@@]3(F)[C@@H](O)C[C@]2(C)[C@@]1(OC(=O)c1ccco1)C(=O)O [Metabolite (X)] here?
Answer: > 1000 nM
